The record followed here is patent US11779582B2, “Composition for preventing or treating metastatic ovarian cancer, endometrial cancer or breast cancer” (LEMONEX INC., priority 2017, dated 2023).

What all share (type): cell-based
Data set [1] deals with monolayer cultured SKOV3ip1 ovarian cancer cells. Briefly: crystal violet cell viability, 2D monolayer culture. The method, then:
2D monolayer culture was implemented in the following manner: cells were cultured at 37° C., 5% CO2 humidified atmosphere using RPMI 1640 medium (Corning, NY, USA) supplemented with 10% fetal bovine serum (Gibco, NY, USA) and 10 U/ml penicillin/streptomycin.
Crystal violet staining was implemented to determine the cell viability in the monolayer cultured cell model and sphere cultured cell model. In order to implement the crystal violet staining in the monolayer culture model, SKOV3ip1 cells (5×10^4) were dispensed in commercial 24-well plates and incubated overnight. Thereafter, the drug was dispensed with a desired concentration for experiment into each well, followed by further incubation for 72 hours. 300 μl of 0.2% crystal violet solution was added to each well, followed by further incubation for 20 minutes while gently stirring the same. The stained cells were washed with distilled water until a clean background is observed. For assessment using a colorimeter, the crystal violet dye was extracted with 1% SDS/PBS and absorbance was measured at 570 nm wavelength by EMax PLUS microplate reader (Molecular Device, USA).
The monolayer cultured or sphere cultured SKOV3ip1 cells were treated with the tyrosine kinase inhibitor and paclitaxel for 72 hours, the cell viability was determined by the crystal violet colorimeter, and results thereof are shown in FIG. 3.

Data set [2] concerns Hs578T breast cancer cell line (3D sphere culture). In words: morphological analysis and crystal violet staining, 3D sphere culture. The protocol:
(§1) With respect to the cancer cell lines listed in Table 1 below, synergistic effects of paclitaxel and BGJ398 were further examined. According to the same procedures as described in the previous examples, each cell line was divided and cultured by 2D monolayer culture and 3D sphere culture, respectively. Then, a change due to BGJ398 administration was analyzed through morphological analysis and crystal violet staining assay. All cell lines were purchased from ATCC and used in the present experiments, and detailed information thereof are shown in Table 3 below.
(§2) With respect to the cancer cell lines listed in Table 2 below, synergistic effects of paclitaxel and BGJ398 were further examined. According to the same procedures as described in the previous examples, each cell line was divided and cultured by 2D monolayer culture and 3D sphere culture, respectively. Then, a change due to administration of BGJ398 alone or in combination with paclitaxel was analyzed through morphological analysis.

In data set [3] the test system is HEC1B endometrial cancer cell line (3D sphere culture). The description is as above. The protocol: as §1, §2
For data set [4], the system named is phosphorylated AKT and XIAP in SKOV3-TR ovarian cancer cells. Briefly: immunostaining of AKT down-signal mechanism. Particulars: BGJ398 treatment, paclitaxel alone or in combination with BGJ398 (FIG. 27). The protocol: FIG. 27 illustrates results of identifying whether there is expression of AKT, phosphorylated AKT, BAD, phosphorylated BAD, XIAP, CASP9, p42/44 and/or phosphorylated p42/44, in order to determine AKT down-signal mechanism in relation to cell survival and cell apoptosis in the cells when paclitaxel alone or in combination with BGJ398 was administered to SKOV3-TR ovarian cancer cells. […] The reason of this fact is considered because a level of XIAP expression in the cells is decreased thus to improve paclitaxel sensitivity.

`CCN1CCN(c2ccc(Nc3cc(N(C)C(=O)Nc4c(Cl)c(OC)cc(OC)c4Cl)ncn3)cc2)CC1` [BGJ398, 3-(2,6-dichloro-3,5-dimethoxyphenyl)-1-[6-[4-(4-ethylpiperazin-1yl)anilino]pyrimidin-4-yl]-1-methylurea]: in data set [1] (monolayer cultured SKOV3ip1, 72 hours, different concentrations, crystal violet colorimeter (FIG. 3)), the cell viability result is “not effected”. In data set [1] (monolayer cultured SKOV3ip1, BGJ398 concentration increased to 5 μM), the cytotoxicity entry is “cytotoxicity was not revealed”. For the same compound, the “cytotoxicity, cell sphere morphology” value in data set [2] (3D sphere culture Hs578T, BGJ398 alone or in combination with paclitaxel) was “cell spheres are collapsed”; in data set [3] (3D sphere culture HEC1B, BGJ398 alone or in combination with paclitaxel), “cell spheres are collapsed”. Also, the cell apoptosis entry in data set [2] (sphere cultured Hs578T, BGJ398 alone) was “cell apoptosis can be found”; in data set [3] (sphere cultured HEC1B, BGJ398 alone) it was “cell apoptosis can be found”. Besides, the XIAP expression entry in data set [4] is given as “XIAP expression is reduced”. In addition, in data set [4], the “level of phosphorylated AKT” value was “significantly decreased”.
